The test relates to 997726-040-R-J2-PDC tumor spheroids, viability. As to the kind of experiment: Anticancer human tumor 997726-040-R-J2-PDC patient-derived squamous cell lung carcinoma cell line growth inhibition [PI3K]. The following applies: spheroids with HUVEC and MSC; for viability, T/C: stronger effect = lower value. In outline: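 Spheroid viability read-out. Co-cultures contained the tumor line plus HUVEC and human MSCs. Each agent was paired with a PI3K inhibitor (inavolisib, alpelisib, duvelisib, copanlisib) across half-log dilutions starting at clinical Cmax, or at 10 microM when Cmax was unknown.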
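Also: spheroids exposed to compounds for seven days before readout.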

Consider `CC(C)n1nc(-c2ccc3oc(N)nc3c2)c2c(N)ncnc21` + Cc1nc(NC(=O)N2CCCC2C(N)=O)sc1-c1ccnc(C(C)(C)C(F)(F)F)c1, for which the IC50 was 17.1 nM (curve of first compound, second compound 0.0316 µM); 10.7 nM (curve of first compound, second compound 0.1 µM); 3.53 nM (curve of first compound, second compound 0.316 µM); < 0.316 nM (curve of first compound, second compound 1 µM); < 0.316 nM (curve of first compound, second compound 3.16 µM); < 0.316 nM (curve of first compound, second compound 10 µM). Moreover, the viability, T/C (second compound 0.0316 µM, first compound 0.000316 µM) was 80.4%; the viability, T/C (second compound 0.0316 µM, first compound 0.001 µM) was 80%; the viability, T/C (second compound 0.0316 µM, first compound 0.00316 µM) is 66.5%; the viability, T/C (second compound 0.0316 µM, first compound 0.01 µM) is 62%; the viability, T/C (second compound 0.0316 µM, first compound 0.0316 µM) is 38.8%; the viability, T/C (second compound 0.0316 µM, first compound 0.1 µM) is 7.7%. The viability, T/C runs as follows: (second compound 0.1 µM, first compound 0.000316 µM) 84.9%; (second compound 0.1 µM, first compound 0.001 µM) 71.1%; (second compound 0.1 µM, first compound 0.00316 µM) 64.4%; (second compound 0.1 µM, first compound 0.01 µM) 52.8%; (second compound 0.1 µM, first compound 0.0316 µM) 33.6%; (second compound 0.1 µM, first compound 0.1 µM) 7.57%. For the same compound, the viability, T/C (second compound 0.316 µM, first compound 0.000316 µM) was 62%; the viability, T/C (second compound 0.316 µM, first compound 0.001 µM) is 61.8%; the viability, T/C (second compound 0.316 µM, first compound 0.00316 µM) was 51.1%; the viability, T/C (second compound 0.316 µM, first compound 0.01 µM) was 36.7%; the viability, T/C (second compound 0.316 µM, first compound 0.0316 µM) is 28.6%; the viability, T/C (second compound 0.316 µM, first compound 0.1 µM) was 6.37%. Moreover, the viability, T/C runs as follows: (second compound 1 µM, first compound 0.000316 µM) 43.7%; (second compound 1 µM, first compound 0.001 µM) 38.9%; (second compound 1 µM, first compound 0.00316 µM) 38.3%; (second compound 1 µM, first compound 0.01 µM) 32.7%; (second compound 1 µM, first compound 0.0316 µM) 21.3%; (second compound 1 µM, first compound 0.1 µM) 3.77%. In addition, the viability, T/C was 32.4% (second compound 3.16 µM, first compound 0.000316 µM); 31.8% (second compound 3.16 µM, first compound 0.001 µM); 27.9% (second compound 3.16 µM, first compound 0.00316 µM); 24.5% (second compound 3.16 µM, first compound 0.01 µM); 9.73% (second compound 3.16 µM, first compound 0.0316 µM); 2.15% (second compound 3.16 µM, first compound 0.1 µM). The viability, T/C reads like this: (second compound 10 µM, first compound 0.000316 µM) 21%; (second compound 10 µM, first compound 0.001 µM) 11.3%; (second compound 10 µM, first compound 0.00316 µM) 10.4%; (second compound 10 µM, first compound 0.01 µM) 8.32%; (second compound 10 µM, first compound 0.0316 µM) 4.53%; (second compound 10 µM, first compound 0.1 µM) 1.59%.

As to `COc1c(OCCCN2CCOCC2)ccc2c3n(c(=NC(=O)c4cnc(N)nc4)nc12)CCN3`, the viability, T/C by setting is: (compound 0.00316 µM) 82.3% [middle of 8 runs]; (compound 0.01 µM) 58.9% [middle of 8 runs]; (compound 0.0316 µM) 36.3% [middle of 8 runs]; (compound 0.1 µM) 22.1% [middle of 8 runs]; (compound 0.316 µM) 4.98% [middle of 8 runs]; (compound 1 µM) 1.19% [middle of 8 runs]. Further, the concentration for half-maximal inhibition (IC50) (compound alone, run of 06/13/2023) is 15.9 nM [middle of 8 runs].

For `Cn1ncc(Cl)c1-c1cc(C(=O)NC(CN)Cc2cccc(F)c2)sc1Cl` (stereo unspecified), the viability, T/C by setting is: (compound 0.0316 µM) 84.3% [middle of 4 runs]; (compound 0.1 µM) 46.1% [middle of 4 runs]; (compound 0.316 µM) 27.1% [middle of 4 runs]; (compound 1 µM) 12.9% [middle of 4 runs]; (compound 3.16 µM) 9.41% [middle of 4 runs]; (compound 10 µM) 12.4% [middle of 4 runs]. In addition, the half-inhibitory concentration (IC50) (curve of compound) was 92.5 nM [middle of 4 runs].

Source of the values: PubChem BioAssay AID1963964 (Molecular Pharmacology Branch, DTP, NCI, 2024).
